Measurements: patent publication US5219741A, “Method of making L-proline using an N-acyl-L-protine acylase” (priority 1990, dated 1993)
“Also recorded” adds a separate entry of the source.

How the values were obtained:
[1] = tested on: Comamonas testosteroni DSM 5416; test: Growth of the strain in culture medium (OD600); format: cell-based
Method: Strains which appeared uniform according to the colony morphology and the microscopic image were then cultivated in 100 ml liquid medium (500 ml Erlenmeyer flask with top and 4 lateral baffles) at 30° C. on a rotary agitator machine at 200 rpms. The culture medium had the following composition: […]
(§1) The carbon source of the culture medium with a concentration of 4 g/l was varied and the influence on growth and acylase formation determined.
(§2) The concentration of N-acetyl-L-proline was varied in a range of 1 g/l-5 g/l in steps of 1 g/l in the culture medium as described in Example 1.
(§3) The concentration of (NH4)2 SO4 was varied in a range of 1 g/l-5 g/l in steps of 1 g/l in the culture medium as described in Example 1.
(§4) The concentration of yeast extract was varied in a range of 1 g/l-5 g/l in steps of 1 g/l in the culture medium as described in Example 1.
(§5) The N-acetyl-L-proline concentration was reduced to 0.2 to 1.0 g/l in the culture medium as described in Example 1 and 4 g/l Na acetate were additionally added.
(§6) The method described above under f) was followed. However, the inductor, N-acetyl-L-proline, was not added to the nutrient medium until the late exponential growth phase after an incubation time of 12 hours.
(§7) The method described above under f) was followed. In addition to N-acetyl-L-proline, various N-acetyl- and N-chloroacetyl amino acids were added to the nutrient medium in a concentration of 1 g/l.

[2] = tested on: N-acyl-L-proline acylase formation in Comamonas testosteroni DSM 5416; test: Acylase formation: specific activity of N-acyl-L-proline acylase in crude extract; format: cell-based
Method: After 24 to 48 hours, the cell-containing nutrient medium was centrifuged (15 min., 4,500 g in a cooling centrifuge), the cells were washed twice with 0.9% (w/v) NaCl solution and resuspended in 10 ml 0.1M tris-HCl buffer, pH 7.0.
The microorganisms of this suspension were macerated by ultrasound treatment (Sonifier-Cell Disrupter B-30 of the firm Branson Sonic Power Co., Danbury, Conn., USA) (2 minutes pulsating, corresponding to 1 minute of pure ultrasonic radiation. The cell fragments and non-macerated cells were centrifuged in a cooled centrifuge 30 minutes at 40,000 g and 5° C. The clear supernatant (=crude extract) was used in an enzyme test.
The reaction was started by adding crude extract and the reaction batches customarily incubated for 10 minutes at 30° C. The incubation time and the amount of crude extract were selected so that the linearity range of the enzymatic reaction and of the subsequent proline detection were not exceeded.
The enzymatic reaction was interrupted by pipetting 50 μl of the enzyme sample into 1.25 ml 100% acetic acid. Subsequently, 0.45 ml 0.1M tris-HCl buffer pH 7.0 and 1.25 ml ninhydrin reagent (3 g ninhydrin dissolved by heating in a mixture of 60 ml 100% acetic acid and 40 ml 6M phosphoric acid) were added. The ninhydrin reagent was freshly prepared daily. The test tubes were loosely closed with screw-on caps, incubated 30 minutes at 100° C. and subsequently cooled down in an ice bath.
The L-proline, liberated by the enzymatic hydrolysis, forms a red dye with ninhydrin at 100° C. The absorption of the red dye was measured in a spectrophotometer at 480 nm relative to a control batch without crude extract (=substrate blank). The concentration of the L-proline produced was determined using a straight calibration line with L-proline in a range of 5 to 100 nmoles per 50 μl specimen. The enzyme activity was indicated in international units; thus, one unit (U) corresponded to an amount of 1 μmole L-proline produced per minute.
The protein determination was carried out with a protein-determination kit of the firm Pierce Chemical Co., Rockford, Ill., USA, according to Bradford, Anal. Biochem. 72, pp. 248-254 (1976).
as §1, §2, §3, §4, §5, §6, §7

N-acyl-L-proline acylase = test: Substrate specificity: hydrolysis of N-acyl amino acids and proline derivatives; format: biochemical, Comamonas testosteroni DSM 5416; conditions: for Rel. activity (%): 20 mM substrate 1.0 ml in 2.0 ml batch, 30° C., pH 7.0, N-acetyl-L-proline = 100%, amino-acid analyzer
Method: The activity of acylase was determined with various N-acetyl-L-amino acids and N-chloroacetyl-L-amino acids in a reaction batch with the following composition:
The reaction temperature was 30° C. and the incubation time 15 minutes to 24 hours. 0.2 ml samples of the reaction batch in each instance were mixed at different times with 0.2 ml 10% (w/v) trichloroacetic acid and the denatured protein centrifuged off for 10 minutes at 11,000 rpms in a table centrifuge. The supernatant was diluted with a 0.1M Na citrate buffer pH 2.2 with 25% (v/v) 2.2-thiodiethanol and 0.1% (v/v) phenol 1:5 and 1:50 respectively. The amino acids released were quantitatively detected by an amino-acid analyzer LC 5001 of the firm Biotronic, Maintal, Federal Republic of Germany. In Table 16, the substrates marked with * and the corresponding products were quantified by means of HPLC.
The activity of the acylase was determined with various proline derivatives as under a).

[3] = carbon source 4 g/l in culture medium
[4] = inductor 1 g/l + 4 g/l Na acetate, 24 hours

Compound: N[C@@H](Cc1c[nH]cn1)C(=O)O [Lhistidine]
- Growth (OD600) [1, 3]: No growth

Compound: N[C@@H](CO)C(=O)O [Lserin]
- Growth (OD600) [1, 3]: No growth

Compound: N[C@@H](Cc1c[nH]c2ccccc12)C(=O)O [Ltryptophane]
- Growth (OD600) [1, 3]: No growth

Compound: O=C(O)CC(O)C(=O)O (stereo not drawn) [Malate]
- Growth (OD600) [1, 3]: 3.4 OD600
- Spec. activity (U/mg) [2, 3]: < 0.01 U/mg

Compound: CC(=O)N[C@@H](C)C(=O)O [N-acetyl-L-alanine]
- Hydrolysis by the acylase (in words) (N-acyl-L-proline acylase): hydrolyzes; also recorded: reacted at a distinctly lower speed
- Rel. activity (%) (N-acyl-L-proline acylase): 9.3%
- Growth (OD600) [1, 4]: 2.28 OD600
- Spec. activity (U/mg) [2, 4]: < 0.01 U/mg

Compound: CSCC[C@H](NC(=O)CCl)C(=O)O [N-chloroacetyl-L-methionine]
- Hydrolysis by the acylase (in words) (N-acyl-L-proline acylase): hydrolyzes; also recorded: reacted at a distinctly lower speed
- Rel. activity (%) (N-acyl-L-proline acylase): 17.1%
- Growth (OD600) [1, 4]: 2.19 OD600
- Spec. activity (U/mg) [2, 4]: < 0.01 U/mg

Compound: CC(C)[C@H](NC(=O)CCl)C(=O)O [N-chloroacetyl-L-valine]
- Hydrolysis by the acylase (in words) (N-acyl-L-proline acylase): hydrolyzes; also recorded: reacted at a distinctly lower speed
- Rel. activity (%) (N-acyl-L-proline acylase): 14.1%
- Growth (OD600) [1, 4]: 2.50 OD600
- Spec. activity (U/mg) [2, 4]: < 0.01 U/mg

Compound: CCC(=O)O [Propionate]
- Growth (OD600) [1, 3]: 1.9 OD600
- Spec. activity (U/mg) [2, 3]: < 0.01 U/mg

Compound: CC(=O)C(=O)O [Pyruvate]
- Growth (OD600) [1, 3]: 2.4 OD600
- Spec. activity (U/mg) [2, 3]: < 0.01 U/mg

Compound: O=C(O)CC(O)(CC(=O)O)C(=O)O [citrate]
- Growth (OD600) [1, 3]: No growth

Compound: O=C(CO)[C@@H](O)[C@H](O)[C@H](O)CO [fructose]
- Growth (OD600) [1, 3]: No growth

Compound: O=C[C@H](O)[C@@H](O)[C@H](O)[C@H](O)CO [glucose]
- Growth (OD600) [1, 3]: No growth

Compound: OC[C@H]1O[C@@H](O[C@H]2[C@H](O)[C@@H](O)C(O)O[C@@H]2CO)[C@H](O)[C@@H](O)[C@H]1O (stereo partly drawn) [lactose]
- Growth (OD600) [1, 3]: No growth

Compound: OC[C@H]1O[C@H](O[C@H]2[C@H](O)[C@@H](O)[C@H](O)O[C@@H]2CO)[C@H](O)[C@@H](O)[C@@H]1O [maltose]
- Growth (OD600) [1, 3]: No growth

Compound: O=C[C@@H](O)[C@@H](O)[C@H](O)[C@H](O)CO [mannose]
- Growth (OD600) [1, 3]: No growth

Compound: OC[C@H]1O[C@@](CO)(O[C@H]2O[C@H](CO)[C@@H](O)[C@H](O)[C@H]2O)[C@@H](O)[C@@H]1O [saccharose]
- Growth (OD600) [1, 3]: No growth

Compound: O=C[C@H](O)[C@@H](O)[C@H](O)CO [xylose]
- Growth (OD600) [1, 3]: No growth

Compound: phenylacetate
- Growth (OD600) [1, 3]: No growth
